Where “and” joins values, the source holds several entries; their conditions need not be identical. Equal values may be shown once.
What was measured:
[1] = tested on: patients with APBD and GBE1 deficiency; assay: 6 minutes walk test, open-label triheptanoin study; assay type: in vivo, human
Protocol: (§1) Ages ranged from 51-66 years and all were Ashkenazi Jewish. Three patients were able to walk independently, one walked with the help of a walker and a 5th patient was wheelchair bound.
(§2) Baseline evaluation based on the criteria described in Table I, herein below was performed every 3 months.
(§3) The outcome measures included: (i) the 6 minutes walk test and (ii) motion capture gait analysis and (iii) SF-36 Health Survey Questionnaire. […] Maximal improvement seemed to occur within the first 6 months of treatment (FIG. 2). […] Physical Function score increased in 4/5 patients on the SF-36 health survey questionnaire.

[2] = tested on: patients with APBD and GBE1 deficiency; assay: Motion capture gait analysis, open-label triheptanoin study; assay type: in vivo, human
Protocol: as §1, §2, §3

[3] = tested on: patients with APBD and GBE1 deficiency; assay: SF-36 Health Survey Questionnaire, open-label triheptanoin study; assay type: in vivo, human
Protocol: as §1, §2, §3

[4] = tested on: patients with APBD and GBE1 deficiency; assay: Adverse event assessment, open-label triheptanoin study; assay type: in vivo, human; settings: 5 patients; for Adverse events (AE): mean 8.2 months of treatment
Protocol: as §1
(§4) In the event of an organic acid abnormality such as an excessive urinary excretion of propionic and/or methylmalonic acid occur, biotin and/or vitamin B12 respectively were added to the regimen and normalization of the organic acid and acylcarnitine profile was verified. Should that not be sufficient the dose was reduced until normalization occurs. If still abnormal, patient was be excluded from the study.
Two adverse events not related to the triheptanoin were a broken ankle in one patient and wound treatment in another. […] Safety was also monitored throughout the study by urinary organic acids and blood acylcarnitine profile analyses. Changes in metabolic tests related the ingestion of triheptanoin were identified.

[5] = tested on: patients with APBD and GBE1 deficiency; assay: Urinary organic acids and blood acylcarnitine profile analyses; assay type: in vivo, human
Protocol: as §4
Safety was also monitored throughout the study by urinary organic acids and blood acylcarnitine profile analyses.

[6] = tested on: patients with long chain fatty acid oxidation defects; settings: 30% to 35% of total daily caloric intake; cited from earlier work
[7] = tested on: patient with adult-onset acid maltase deficiency (Pompe disease); settings: one patient; cited from earlier work
[8] = tested on: patient with pyruvate carboxylase deficiency; settings: one patient; cited from earlier work
[9] = 5 patients, within 6 months of treatment

CCCCCCC(=O)OCC(COC(=O)CCCCCC)OC(=O)CCCCCC [triheptanoin, glyceryl triheptanoate]
Six minute walk test distance on treatment ([1]; 5 patients, mean ± SD after treatment (from 1246±642), p=0.06): 1376±692 feet
Six minute walk test mean increase ([1]; 5 patients, triheptanoin oil 1-2 g/fg/24 hours in 4 divided doses, 1246±642 at start, p=0.06): 130 feet
Distance walked during 6 minutes (6 minutes walk test) [1, 9]: significant improvement
Time of maximal improvement in 6-minute walk test ([1]; FIG. 2): ≤ 6 months
6-minute walk test mean improvement ([1]; mean follow up of 8.5 months, n=5, p=0.06): 10%
6-minute walk test improvement, one patient ([1]; one patient, 25 months time point): 126 feet and 9.5%
Motor performance and quality of life ([1]; open-label study, 5 patients): evidence of improved motor performance as well as quality of life
Gait analysis: cadence, support time, stride length, step length and walking speed ([2]; 3 patients who were able to walk unaided): improvement
Gait analysis [2, 9]: stability or slight improvement
Patients with increased Physical Function score on the SF-36 ([3]; 5 patients): 4/5
SF-36 Health Survey Questionnaire scores ([3]; FIG. 3): tended to improve in parallel with motor score
AE remotely linked to triheptanoin [4]: rectal pain reported by one patient
Serious AE [4]: no serious AE related to triheptanoin oil
Adverse events (AE) [4]: No adverse events (AE) were reported
Adverse events (AE) ([4]; listed as triheptanoin oil): No significant adverse events occurred
Catabolism of triheptanoin ([5]; conclusion from urine and plasma findings): catabolized completely without accumulation of secondary metabolites
Mitochondrial overload from triheptanoin-derived metabolites ([5]; urinary organic acids): no evidence of mitochondrial overload
Urinary excretion of derivatives of heptanoate oxidation (pimelate, 3-hydroxypentanoate, 3-ketopentanoate, 3-hydroxypropionate, methylcitrate) ([5]; urine): detected
Clinical outcome of diet treatment [6]: decreased episodes of rhabdomyolysis, improvement in pain and cardiac function
Propionyl overload [6]: No propionyl overload occurred
Clinical response [7]: markedly improved
Glutamine and GABA in the CSF [8]: normalization

From patent US20110306663A1 (Baylor Research Institute, priority 2010, published 2011)
